Our source for the IC50 values is US20180243298A1, “TRPV3 MODULATORS” (AbbVie Inc., priority 2015, published 2018).

The target in the test is T1, human TRPV3 (Homo sapiens, UniProt Q8NET8).
T1 construct: expressed in transfected cells; host or cells: HEK293
T1 sequence (Q8NET8 1-790): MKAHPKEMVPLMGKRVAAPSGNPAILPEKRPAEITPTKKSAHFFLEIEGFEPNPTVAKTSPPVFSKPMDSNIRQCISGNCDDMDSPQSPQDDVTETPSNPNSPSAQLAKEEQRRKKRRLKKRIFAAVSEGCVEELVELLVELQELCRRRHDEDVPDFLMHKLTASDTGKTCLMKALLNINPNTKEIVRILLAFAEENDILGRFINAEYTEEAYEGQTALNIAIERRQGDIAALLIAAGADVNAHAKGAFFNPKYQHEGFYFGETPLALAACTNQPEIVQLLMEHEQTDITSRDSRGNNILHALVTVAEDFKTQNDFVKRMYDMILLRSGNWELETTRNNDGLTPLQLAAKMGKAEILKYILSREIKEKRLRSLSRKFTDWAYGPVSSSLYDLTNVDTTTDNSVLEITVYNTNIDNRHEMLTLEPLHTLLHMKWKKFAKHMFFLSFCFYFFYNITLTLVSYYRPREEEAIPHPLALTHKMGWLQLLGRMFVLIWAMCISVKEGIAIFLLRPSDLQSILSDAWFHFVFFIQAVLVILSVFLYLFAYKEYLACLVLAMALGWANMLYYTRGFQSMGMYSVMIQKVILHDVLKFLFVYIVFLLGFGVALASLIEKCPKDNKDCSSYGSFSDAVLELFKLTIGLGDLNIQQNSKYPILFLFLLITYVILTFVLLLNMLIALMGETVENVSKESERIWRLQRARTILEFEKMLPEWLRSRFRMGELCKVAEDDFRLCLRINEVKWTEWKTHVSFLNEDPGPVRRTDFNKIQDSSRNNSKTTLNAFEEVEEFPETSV
Kind of test: Calcium flux assay (FLIPR TETRA), recombinant HEK293 cells expressing TRPV3, 2-APB response. The class given is cell-based. To be noted: 2-APB at its EC80. In a few lines:
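HEK293 cells stably expressing human or mouse TRPV3, loaded with Calcium-4 dye for 90–120 min, read on FLIPR TETRA. Peak fluorescence rise over baseline expressed as percent of the maximal response to 2-APB at its EC80 without compound.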

As for `COc1ncnc(OC)c1C(=O)Nc1nc(-c2ccc(C(F)(F)F)cn2)c([S+](C)[O-])s1` (stereo not drawn) [Example 113, 4,6-dimethoxy-N-[5-methylsulfinyl-4-[5-(trifluoromethyl)-2-pyridyl]-1,3-thiazol-2-yl]pyrimidine-5-carboxamide], the IC50 was in the range of 500 to 1000 nM.
Take `COc1ncnc(OC)c1C(=O)Nc1nc(C(F)(F)F)c(C2CCOC2)s1` (stereo not drawn) [Example 146, 4,6-dimethoxy-N-[5-(tetrahydrofuran-3-yl)-4-(trifluoromethyl)-1,3-thiazol-2-yl]pyrimidine-5-carboxamide]: the IC50 was 100 to 500 nM.
Turning to `COc1ncnc(OC)c1C(=O)Nc1nc(C(F)(F)F)c(C#CC2CC2)s1` [Example 14, N-[5-(cyclopropylethynyl)-4-(trifluoromethyl)-1,3-thiazol-2-yl]-4,6-dimethoxypyrimidine-5-carboxamide], the IC50 was less than 50 nM.
Under `COc1ncnc(OC)c1C(=O)Nc1nc(C(F)(F)F)c(CCCO)s1` [Example 13, N-[5-(3-hydroxypropyl)-4-(trifluoromethyl)-1,3-thiazol-2-yl]-4,6-dimethoxypyrimidine-5-carboxamide] stands greater than 1000 nM.
On to `COc1ncnc(OC)c1C(=O)Nc1nc(C(F)(F)F)c(-c2ccc(Cl)cn2)s1` [Example 46, N-[5-(5-chloropyridin-2-yl)-4-(trifluoromethyl)-1,3-thiazol-2-yl]-4,6-dimethoxypyrimidine-5-carboxamide], for which the IC50 was less than 50 nM.
For the compound `COc1ncnc(OC)c1C(=O)Nc1nc(C(F)(F)F)c(-c2cnc(N3CCOCC3)nc2)s1` [Example 36, 4,6-dimethoxy-N-{5-[2-(morpholin-4-yl)pyrimidin-5-yl]-4-(trifluoromethyl)-1,3-thiazol-2-yl}pyrimidine-5-carboxamide], the IC50 was in the range of 50 to 100 nM.
Take `COc1ncnc(OC)c1C(=O)Nc1nc(C2CCCC2)cs1` [Example 98, N-(4-cyclopentyl-1,3-thiazol-2-yl)-4,6-dimethoxypyrimidine-5-carboxamide]: the IC50 was in the range of 100 to 500 nM.
On to `COc1cc(F)ccc1-c1csc(NC(=O)c2c(OC)ncnc2OC)n1` [Example 108, N-[4-(4-fluoro-2-methoxyphenyl)-1,3-thiazol-2-yl]-4,6-dimethoxypyrimidine-5-carboxamide], for which the IC50 lay in the range of 100 to 500 nM.
Under `COc1ncnc(OC)c1C(=O)Nc1nc(C(F)(F)F)c(-c2ccnc(CC#N)c2)s1` [Example 152, N-{5-[2-(cyanomethyl)pyridin-4-yl]-4-(trifluoromethyl)-1,3-thiazol-2-yl}-4,6-dimethoxypyrimidine-5-carboxamide] stands 100 to 500 nM; under `COc1ncnc(OC)c1C(=O)Nc1nc(C(F)(F)F)c(CCC(C)(C)O)s1` [Example 20, N-[5-(3-hydroxy-3-methylbutyl)-4-(trifluoromethyl)-1,3-thiazol-2-yl]-4,6-dimethoxypyrimidine-5-carboxamide], 500 to 1000 nM; under `COc1ncnc(OC)c1C(=O)Nc1nc(C(F)(F)F)c([C@@H]2CCCOC2)s1` (single isomer, unassigned) [Example 150], 100 to 500 nM.
Regarding `CCn1cc(-c2sc(NC(=O)c3c(OC)ncnc3OC)nc2C(F)(F)F)c(C)n1` [Example 200, N-[5-(1-ethyl-3-methyl-1H-pyrazol-4-yl)-4-(trifluoromethyl)-1,3-thiazol-2-yl]-4,6-dimethoxypyrimidine-5-carboxamide], the IC50 was less than 50 nM.
With `CCOC(=O)c1sc(NC(=O)c2c(OC)ncnc2OC)nc1-c1ccc(C(F)(F)F)cn1` [Example 75, ethyl 2-{[(4,6-dimethoxypyrimidin-5-yl)carbonyl]amino}-4-[5-(trifluoromethyl)pyridin-2-yl]-1,3-thiazole-5-carboxylate], the IC50 lay in the range of 100 to 500 nM.
For `COc1ncnc(OC)c1C(=O)Nc1nc(C(F)(F)F)c(C(C)(C)O)s1` [Example 116, N-[5-(2-hydroxypropan-2-yl)-4-(trifluoromethyl)-1,3-thiazol-2-yl]-4,6-dimethoxypyrimidine-5-carboxamide], the IC50 was greater than 1000 nM.
The value for `COc1ncnc(OC)c1C(=O)Nc1nc(-c2ccc(C(F)(F)F)cn2)c(C)s1` [Example 95, 4,6-dimethoxy-N-{5-methyl-4-[5-(trifluoromethyl)pyridin-2-yl]-1,3-thiazol-2-yl}pyrimidine-5-carboxamide] was less than 50 nM; that for `COc1ncnc(OC)c1C(=O)Nc1nc(C(F)(F)F)c(Cl)s1` [Example 63, N-[5-chloro-4-(trifluoromethyl)-1,3-thiazol-2-yl]-4,6-dimethoxypyrimidine-5-carboxamide] was less than 50 nM.
The value for `COc1ncnc(OC)c1C(=O)Nc1nc(C(F)(F)F)c(-c2cccc(F)n2)s1` [Example 153, N-[5-(6-fluoropyridin-2-yl)-4-(trifluoromethyl)-1,3-thiazol-2-yl]-4,6-dimethoxypyrimidine-5-carboxamide] was less than 50 nM.
The value for `COc1ncnc(OC)c1C(=O)Nc1nc(C(F)(F)F)c(Sc2ccccc2)s1` [Example 115, 4,6-dimethoxy-N-[5-phenylsulfanyl-4-(trifluoromethyl)-1,3-thiazol-2-yl]pyrimidine-5-carboxamide] was 50 to 100 nM.
On to `COc1ncnc(OC)c1C(=O)Nc1nc(-c2ccc(C(F)(F)F)cn2)c(C(C)O)s1` (single isomer, unassigned) [Example 83, N-{5-[(1R*)-1-hydroxyethyl]-4-[5-(trifluoromethyl)pyridin-2-yl]-1,3-thiazol-2-yl}-4,6-dimethoxypyrimidine-5-carboxamide], for which the IC50 lay within 100 to 500 nM.
Regarding `COc1ncnc(OC)c1C(=O)Nc1nc(-c2ccc(F)cn2)cs1` [Example 91, N-[4-(5-fluoropyridin-2-yl)-1,3-thiazol-2-yl]-4,6-dimethoxypyrimidine-5-carboxamide], the concentration for half-maximal inhibition (IC50) was in the range of 500 to 1000 nM.
For the compound `COc1ncnc(OC)c1C(=O)Nc1nc(C(F)(F)F)c(-c2cccc(S(=O)(=O)N3CCOCC3)c2)s1` [Example 195, 4,6-dimethoxy-N-{5-[3-(morpholin-4-ylsulfonyl)phenyl]-4-(trifluoromethyl)-1,3-thiazol-2-yl}pyrimidine-5-carboxamide], the IC50 was in the range of 50 to 100 nM.
Under `CO/N=C(\C)c1sc(NC(=O)c2c(OC)ncnc2OC)nc1-c1ccc(C(F)(F)F)cn1` [Example 89, 4,6-dimethoxy-N-{5-[(1E)-N-methoxyethanimidoyl]-4-[5-(trifluoromethyl)pyridin-2-yl]-1,3-thiazol-2-yl}pyrimidine-5-carboxamide] stands less than 50 nM; under `CCc1sc(NC(=O)c2c(OC)ncnc2OC)nc1-c1ccccc1` [Example 26, N-(5-ethyl-4-phenyl-1,3-thiazol-2-yl)-4,6-dimethoxypyrimidine-5-carboxamide], 50 to 100 nM.
As to `CCSc1ncnc(OC)c1C(=O)Nc1nc(C(F)(F)F)c(-c2ccccc2C#N)s1` [Example 160, N-[5-(2-cyanophenyl)-4-(trifluoromethyl)-1,3-thiazol-2-yl]-4-(ethylsulfanyl)-6-methoxypyrimidine-5-carboxamide], the IC50 is less than 50 nM.
Under `CCn1cc(-c2sc(NC(=O)c3c(OC)ncnc3OC)nc2C(F)(F)F)cn1` [Example 177, N-[5-(1-ethyl-1H-pyrazol-4-yl)-4-(trifluoromethyl)-1,3-thiazol-2-yl]-4,6-dimethoxypyrimidine-5-carboxamide] stands 100 to 500 nM.
For `COc1ncnc(OC)c1C(=O)Nc1nc(C(F)(F)F)c(CN2CC[C@H](OC)C2)s1` [Example 59, 4,6-dimethoxy-N-[5-{[(3S)-3-methoxypyrrolidin-1-yl]methyl}-4-(trifluoromethyl)-1,3-thiazol-2-yl]pyrimidine-5-carboxamide], the IC50 lay within 500 to 1000 nM.
As for `COc1ncnc(OC)c1C(=O)Nc1nc(C(F)(F)F)c(-c2cccnc2N2CCOCC2)s1` [Example 185, 4,6-dimethoxy-N-{5-[2-(morpholin-4-yl)pyridin-3-yl]-4-(trifluoromethyl)-1,3-thiazol-2-yl}pyrimidine-5-carboxamide], the IC50 is less than 50 nM.
Consider `COc1ncnc(OC)c1C(=O)Nc1nc(C(F)(F)F)c(-c2ccc(Cl)cc2)s1` [Example 4, N-[5-(4-chlorophenyl)-4-(trifluoromethyl)-1,3-thiazol-2-yl]-4,6-dimethoxypyrimidine-5-carboxamide], for which the IC50 was in the range of 50 to 100 nM.
`COc1ncnc(OC)c1C(=O)Nc1nc(C(F)(F)F)c(-c2ccc(C(C)(C)C#N)cn2)s1` [Example 158, N-{5-[5-(2-cyanopropan-2-yl)pyridin-2-yl]-4-(trifluoromethyl)-1,3-thiazol-2-yl}-4,6-dimethoxypyrimidine-5-carboxamide]: the IC50 was less than 50 nM.
Under `COc1ncnc(OC)c1C(=O)Nc1nc(-c2ccc(C(F)(F)F)cn2)c(C#N)s1` [Example 97, N-{5-cyano-4-[5-(trifluoromethyl)pyridin-2-yl]-1,3-thiazol-2-yl}-4,6-dimethoxypyrimidine-5-carboxamide] stands 50 to 100 nM.
